# “Also recorded” adds a separate entry of the source.
# How the values were obtained:
# [1] = test system: matured human monocyte-derived DC; assay: Antigen uptake assay, matured human DC; type: cell-based; settings: matured human DC, OVA-FITC
# Method: (§1) FIGS. 2A to 2G are a series of pictures showing that a kinase activated pathway regulates antibody-induced antigen uptake by matured DC. Matured human monocyte-derived DC were treated with the MTAb B7-DC XAb for varying time periods and evaluated for the phosphorylation status of select signaling pathway intermediates by immunoprecipitation with DAP12 (MC457), Syk (4D10), and PLCγ1 (MC490) reactive antibodies followed by western blot analysis using the phosphotyrosine reactive antibody 4G10 as a probe (FIGS. 2A-2C). Samples of the cells blocked with indicated concentration of piceatannol (FIG. 2D) or with […] of piceatannol (FIG. 2E) were analyzed for phosphorylation of Syk (FIG. 2D) and PLCγ1 (FIG. 2E). To investigate the functional importance of these signaling intermediates in the regulation of antigen uptake by matured DC activated with B7-DC XAb, varying concentrations of pharmacologic inhibitors were used to block the activity of p72Syk (piceatannol) and PLCγ1 (U73122) (FIGS. 2F and 2G, respectively). Antigen uptake was assessed by pulsing cultures with FITC-conjugated ovalbumin and measuring intracellular fluorescence 16 hours later in CD11c positive cells by flow cytometry.
# Human DC were generated from peripheral blood CD14^+ monocytes by incubation in GM-CSF and IL-4 for five days. […] All cultures were pulsed with OVA-FITC at the time of treatment with IgM antibodies, and […] OVA-FITC was assessed 24 hours later by flow cytometry.
# FIGS. 4A and 4B are a series of plots showing the effects of kinase inhibitors on OVA-FITC uptake by matured human DC, as determined by flow cytometry. […] All cells were pulsed with OVA-FITC at the time of treatment with IgM antibody, and CD11c+ cells were analyzed for OVA-FITC uptake 24 hours later by flow cytometry. […]
# Antigen uptake experiments were carried out as described previously (Radhakrishnan et al. (2005) Proc. Natl. Acad. Sci. U.S.A. 102:11438-11443). […] The matured cells were incubated with ovalbumin labeled with FITC or APC and control antibody or B7-DC XAb for two hours, washed and analyzed by FACSCALIBUR™ (Becton Dickinson). […]
# human DC = assay: Immunoblot of phosphorylation of signaling intermediates in human DC; type: cell-based
# Method: as §1
# In experiments involving assessment of the phosphorylation status of various protein kinases using whole cell lysate, dendritic cells of mouse or human origin or Jurkat cells were stimulated at the indicated times with control antibody or B7-DC XAb, and were lysed on ice for 10 minutes in 1 ml buffer containing 20 mM Tris-HCl, 40 mM NaCl, 5 mM EDTA, 50 mM NaF, 30 mM Na4P2O7, 0.1% BSA, 1 mM Na3VO4, 1 mM PMSF, 5 μg/ml aprotinin, 10 μg/ml leupeptin, and 1% Triton X-100. Cellular debris was removed by centrifugation at 20,800×g for 5 minutes at 4° C. and the supernatant was used in SDS-PAGE analysis for phosphorylated tyrosine proteins. For immunoprecipitation, antibody against mouse Syk (4D10) or PLC yl (MC490) or DAP12 (MC457) at 10 μg per sample was bound to protein A-Sepharose beads at 4° C. for 2 hours under constant rotation. Supernatants from cell lysate after stimulation were incubated with antibody coupled beads for 2 hours at 4° C. with constant rotation. […] Tyrosine-phosphorylated proteins were detected using the anti-phosphotyrosine specific antibody, 4G10, followed by goat anti-mouse IgG coupled to Horse Radish Peroxidase (Santa Cruz Biotechnology) and the SuperSignal detection system (Pierce Biotechnology, Rockford, Ill.). […] The supernatants were resolved by SDS-PAGE, probed with anti-mouse TREM-2 antibody (237920) and detected by Goat-anti mouse antibody coupled to HRP, or probed with affinity purified anti-mouse CD40 (1C10) and detected by Goat-anti mouse antibody coupled to HRP.
substance,measurement,setting,value
B7-DC XAb: human monoclonal IgM from a Waldenstrom's macroglobulinemia patient that binds and cross-links B7-DC on DC,antigen uptake by matured DC,[1],regaining the ability to take up antigen; also recorded: take up ovalbumin when activated
same,phosphorylation of PLCγ1,human DC; human DC,concomitant with the phosphorylation of PLCγ1
same,phosphorylation of cellular proteins,human DC; human DC treated with antibody,induced as early as one minute after treatment
same,phosphorylation of DAP12,"human DC; human DC, cross-linking B7-DC",rapidly phosphorylated
same,phosphorylation of Syk,"human DC; human DC, immunoprecipitated Syk",revealed phosphorylation of the protein tyrosine kinase
